The values that follow come from patent publication US20260199240A1, “BIOMEDICAL APPLICATIONS OF AZOBENZENE-BASED LIPIDOIDS” (Trustees of Tufts College, priority 2022, published 2026).

Data set [1] is described as follows: Photoisomerization of Azo lipidoids in DMSO (UV-Vis absorption). It is filed as physicochemical. The conditions noted are these: for UV irradiation time until spectral changes level off (photostationary state): UV 365 nm, 5.40 mW/cm^2; for additional Vis irradiation time that reverses the spectral change: Vis >400 nm, 20 mW/cm^2. As for the experimental part:
Azo lipidoid was prepared as 50 μM solution in anhydrous dimethyl sulfoxide (DMSO). The sample was irradiated with UV (365 nm for 6 s) and Vis light (>400 nm for 6 s), respectively. The power densities for 365 and >400 nm was 5.40 and 20 mW/cm^2, respectively.
SAzo lipidoid was prepared as 30 μM solution in anhydrous dimethyl sulfoxide (DMSO). TAzo lipidoid was prepared as 15 μM solution in DMSO. These samples were irradiated with UV (365 nm for 6 s) and Vis light (>400 nm for 6 s), respectively. The power densities for 365 and >400 nm are 5.40 and 20 mW/cm^2, respectively.

Data set [2] can be described thus: Critical micelle concentration in aqueous solution. In kind it is physicochemical.
The next data set concerns 4T1 tumor cells. Briefly: Cell cytotoxicity using CCK-8 assay. In kind it is cell-based, mouse. The method, then: In vitro cytotoxicity was assessed by the standard CCK-8 assay. To test the cytotoxicity of DSPC-Azo@GOx with or without UV/Vis light irradiation, 4T1 tumor cells were seeded in the basolateral chamber of a 24-well transwell plate at a density of 10^5 cells per well and cultured in 5% CO2 at 37° C. for overnight (16 h). Then, DSPC-Azo@GOx was added to the upper chamber. Then, the samples were irradiated using the UV/Vis light (irradiated for 5 min every 8 hours). After three irradiation, the cell viability was measured using CCK-8 kit according to the manufacturer's instruction.
For orientation: Tetrazolium assays rely on reduction of a dye to a coloured formazan, in cell work by metabolically active cells.

The conditions of data set [3]: helper lipid; cited from earlier work.

For the molecule `CCCCCCCCCCCC(=O)Nc1ccc(/N=N/c2ccc(C[N+](C)(C)C)cc2)cc1` [Azo lipidoid], in data set [1], the “UV irradiation time until spectral changes level off (photostationary state)” value amounted to 6 s and the “additional Vis irradiation time that reverses the spectral change” value came out at 6 s. The “critical micelle concentration (CMC)” value in data set [2] is given as “≈ 30 μM”. Also, the “dose dependent cell viability” value with 4T1 tumor cells (4T1 cells, 24 h incubation) was “relatively good biocompatibility”.
On to `CCCCCCCCCCCCCC(=O)OC[C@H](COP(=O)([O-])OCC[N+](C)(C)C)OC(=O)CCCCCCCCCCCCC` [DMPC, dimyristoylphosphatidylcholine], for which, in data set [3], the “Tm (phase transition temperature)” value was 24.1 °C and the headgroup surface area was ~ 0.665 nm^2.
On to `CCCCCCCCCCCCCCCC(=O)OC[C@H](COP(=O)([O-])OCC[N+](C)(C)C)OC(=O)CCCCCCCCCCCCCCC` [DPPC, dipalmitoylphosphatidylcholine], for which, in data set [3], the “Tm (phase transition temperature)” value is 41.3 °C and the headgroup surface area was ~ 0.665 nm^2.
Turning to `CCCCCCCCCCCCCCCCCC(=O)OC[C@H](COP(=O)([O-])OCC[N+](C)(C)C)OC(=O)CCCCCCCCCCCCCCCCC` [DSPC, distearoylphosphatidylcholine], in data set [3], the “Tm (phase transition temperature)” value is 55 °C and the headgroup surface area is reported as ~ 0.430 nm^2.
Take `CCCCCCCCCCCC(=O)Nc1ccc(/N=N/c2ccc(C[N+](C)(C)CC[N+](C)(C)Cc3ccc(/N=N/c4ccc(NC(=O)CCCCCCCCCCC)cc4)cc3)cc2)cc1` [TAzo lipidoid]: in data set [1], the “UV irradiation time until spectral changes level off (photostationary state)” value was 6 s and the “additional Vis irradiation time that reverses the spectral change” value amounted to 6 s.
On to Glucose Oxidase [GOx], for which, in the data set on 4T1 tumor cells (dialysis setup, 24 h), the “cell viability with versus without UV/Vis light treatment” value is reported as “no significant differences in cell viabilities”.
